System: pDCs
Test: Stimulation of pDCs (IFN-α ELISA)
Type: cell-based
Settings: peptide premixed with human genomic DNA 10 µg/mL, 24 hours, Fig. S4B
Description: Buffy coats of HD were from Centro Trasfusionale, Policlinico Umberto I, Rome, IT. After separation of mononuclear cells by Ficoll centrifugation, pDCs were purified as described[9],[10], by using the Diamond Plasmacytoid Dendritic Cell Isolation Kit (Miltenyi Biotec) to obtain 99% purity.
Antibodies and reagents for flow cytometry, confocal microscopy and immunohistochemistry Antibodies to CD4, CD8, CD3, conjugated with various fluorochromes [FITC, phycoerythrin (PE), peridinin-chlorophyll-protein (PerCp), allophycocyanin (APC), PE-Cy7] were from BD Biosciences or eBiosciences (San Diego, CA). For further LL37-specific T-cell characterization, FITC-, APC-, PE-, PerCp-, PerCpCy5.5-, APC-Cy7-, AlexaFluor488-conjugated CCR6, -CLA, -CXCR5 (FAB190), PD1, -ICOS, -CD38, CD19, CD20, CD27, CD138 antibodies were purchased from BD Biosciences, eBiosciences, Novus Biologicals (Littleton, CO), R&D (Minneapolis, MN), Invitrogen Life Technologies. […]
Purified pDCs were seeded into 96-well round-bottom plates at 3.5/5 × 10^4 cells per well in 200 μl RPMI 1640 (GIBCO), supplemented with 15% fetal calf serum (FCS), 1% Hepes and 1% sodium piruvate. […] IFN-α in supernatants was measured by enzyme linked immunosorbent assay (ELISA) (MabTech, France) after 24 hours. […]

Substance: LLGDFFR(cit)KSKEKIGKEFKR(cit)IVQR(cit)IKDFLR(cit)NLVPR(cit)TES [cit-LL37, citrullinated LL37 (citrullinated at all five arginin positions)]
- adjuvant activity for DCs: completely devoid of adjuvant activity for DCs

— PMC7125190, “Native/citrullinated LL37-specific T-cells help autoantibody production in Systemic Lupus Erythematosus” (Scientific Reports, 2020)
